Laboratory results reported in publication PMC4472782, “Antibacterial Characterization of Novel Synthetic Thiazole Compounds against Methicillin-Resistant Staphylococcus pseudintermedius” (PLoS ONE, 2015).
≈ marks a conversion by molar mass, not a printed value.

Key:
[1] = system: methicillin-resistant Staphylococcus pseudintermedius; assay: MIC by broth microdilution against MRSP clinical isolates; format: cell-based; settings: six MRSP isolates, triplicate
Protocol: Fifteen isolates of S. pseudintermedius (nine MSSP and six MRSP), identified at the Indiana Animal Disease Diagnostic Laboratory from specimens collected from dogs admitted to the small animal teaching hospital at Purdue University, were included in the study. The specimens were not collected specifically for this research study but were obtained from patients admitted to the hospital for treatment. Clinical specimens were inoculated onto 5% sheep blood agar and incubated at 35°C for 18–24 hours. Standard methods including examination of colony morphology and hemolysis and biochemical tests such as tube coagulase, Voges-Proskauer (VP) and fermentation tests for maltose, trehalose and lactose, were used in addition to matrix-assisted laser desorption ionization time of flight mass spectrometry to identify isolates. Antimicrobial susceptibility was determined by broth microdilution using the SensiTitre (Thermofisher Scientific).
Bacteria were prepared in phosphate-buffered saline (PBS) until a McFarland standard of 0.5 was achieved. The solution was subsequently diluted 1:300 in Mueller-Hinton broth (MHB) to reach a starting inoculum of 1 × 10^5 colony-forming units (CFU/mL). Bacteria were then transferred to a 96-well microtiter plate. Thiazole compounds and antibiotics were added (in triplicate) to wells in the first row of the microtiter plate and then serially diluted along the vertical axis. […] The MIC was categorized as the concentration where there was no visible growth of bacteria observed.

[2] = system: murine macrophage cell line (J774.A1); assay: In vitro cytotoxicity analysis (MTS assay); format: cell-based; settings: 10 μg/mL, J774.A1, two hours
Protocol: Compounds were assayed at concentrations of 5 μg/mL, 10 μg/mL, 20 μg/mL, and 40 μg/mL against a murine macrophage cell line (J774.A1) (ATCC TIB-67, American Type Culture Collection (ATCC), Manassas, VA, USA) to determine the potential toxic effect in vitro. Cells were cultured in Dulbeco’s modified Eagle’s medium (Sigma-Aldrich, St. Louis, MO, USA) with 10% fetal bovine serum (USA Scientific, Inc.) at 37°C with 5% CO2. Controls received DMSO alone at a concentration equal to that in drug-treated cell samples. The cells were incubated with the compounds in a 96-well plate at 37°C and 5.0% CO2 for two hours prior to addition of the assay reagent MTS 3-(4,5-dimethylthiazol-2-yl)-5-(3-carboxymethoxyphenyl)-2-(4-sulfophenyl)-2H-tetrazolium) (Promega, Madison, WI, USA). Absorbance readings were taken using a kinetic ELISA microplate reader (Molecular Devices, Sunnyvale, CA, USA). The quantity of viable cells after treatment with each compound was expressed as a percentage of the control, DMSO.
All statistical analyses were performed with GraphPad Prism 6.0 (GraphPad Software, La Jolla, CA). Data generated from cytotoxicity analysis of the thiazole compounds against J774.A1 cells and the 260 and 280 nm cell leakage analysis were analyzed using one-way ANOVA, with post hoc Tukey's multiple comparisons test (P < 0.05).

CCCCC#Cc1ccc(-c2nc(C)c(/C(C)=N/NC(=N)N)s2)cc1 [Compound 3]
MIC50 ([1]; Staphylococcus pseudintermedius, read-out: MIC50): 0.48 µg/mL (≈ 1.36 µM)
MIC Range [1]: 0.18 to 1.41 µg/mL
toxicity to murine macrophage cells (MTS assay) [2]: not toxic
